Data taken from PMC6892751, “Novel Angiotensin-Converting Enzyme-Inhibitory Peptides From Fermented Bovine Milk Started by Lactobacillus helveticus KLDS.31 and Lactobacillus casei KLDS.105: Purification, Identification, and Interaction Mechanisms” (Frontiers in Microbiology, 2019).
Where two headings read alike, the source gives them in different places. Where no end group is shown, it is not given here.

Assays:
ACE = details: read-out: IC50 of ACE inhibition, cited from earlier work
Text: ACE-inhibitory peptides from bovine milk protein have been described previously ([De Leo et al., 2009]). These bioactive peptides are typically produced by enzymatic hydrolysis, microbial fermentation, or genetic engineering. In particular, more attention has been focused on microbial fermentation as the food grade bacteria, such as lactic acid bacteria (LAB), provide enriched food bioactive substances ([Castellano et al., 2013]). Furthermore, the hydrolytic processing of milk protein through the action of chymosin and Lactobacillus casei can also improve cheese flavor ([Lemieux et al., 2010]) ...

[1] = molecular target: T1, angiotensin I-converting enzyme (ACE) (Oryctolagus cuniculus, UniProt P12822); assay: ACE-inhibitory activity determination by HPLC (hippuric acid from Hip-His-Leu); assay type: biochemical; details: HPLC of hippuric acid, Hip-His-Leu 5 mM, sodium borate buffer 50 mM pH 8.1, ACE 0.1 U/mL, 37°C 60 min, mean ± SD, triplicate, read-out: IC50 of ACE inhibition
T1 sequence (P12822 34-1310): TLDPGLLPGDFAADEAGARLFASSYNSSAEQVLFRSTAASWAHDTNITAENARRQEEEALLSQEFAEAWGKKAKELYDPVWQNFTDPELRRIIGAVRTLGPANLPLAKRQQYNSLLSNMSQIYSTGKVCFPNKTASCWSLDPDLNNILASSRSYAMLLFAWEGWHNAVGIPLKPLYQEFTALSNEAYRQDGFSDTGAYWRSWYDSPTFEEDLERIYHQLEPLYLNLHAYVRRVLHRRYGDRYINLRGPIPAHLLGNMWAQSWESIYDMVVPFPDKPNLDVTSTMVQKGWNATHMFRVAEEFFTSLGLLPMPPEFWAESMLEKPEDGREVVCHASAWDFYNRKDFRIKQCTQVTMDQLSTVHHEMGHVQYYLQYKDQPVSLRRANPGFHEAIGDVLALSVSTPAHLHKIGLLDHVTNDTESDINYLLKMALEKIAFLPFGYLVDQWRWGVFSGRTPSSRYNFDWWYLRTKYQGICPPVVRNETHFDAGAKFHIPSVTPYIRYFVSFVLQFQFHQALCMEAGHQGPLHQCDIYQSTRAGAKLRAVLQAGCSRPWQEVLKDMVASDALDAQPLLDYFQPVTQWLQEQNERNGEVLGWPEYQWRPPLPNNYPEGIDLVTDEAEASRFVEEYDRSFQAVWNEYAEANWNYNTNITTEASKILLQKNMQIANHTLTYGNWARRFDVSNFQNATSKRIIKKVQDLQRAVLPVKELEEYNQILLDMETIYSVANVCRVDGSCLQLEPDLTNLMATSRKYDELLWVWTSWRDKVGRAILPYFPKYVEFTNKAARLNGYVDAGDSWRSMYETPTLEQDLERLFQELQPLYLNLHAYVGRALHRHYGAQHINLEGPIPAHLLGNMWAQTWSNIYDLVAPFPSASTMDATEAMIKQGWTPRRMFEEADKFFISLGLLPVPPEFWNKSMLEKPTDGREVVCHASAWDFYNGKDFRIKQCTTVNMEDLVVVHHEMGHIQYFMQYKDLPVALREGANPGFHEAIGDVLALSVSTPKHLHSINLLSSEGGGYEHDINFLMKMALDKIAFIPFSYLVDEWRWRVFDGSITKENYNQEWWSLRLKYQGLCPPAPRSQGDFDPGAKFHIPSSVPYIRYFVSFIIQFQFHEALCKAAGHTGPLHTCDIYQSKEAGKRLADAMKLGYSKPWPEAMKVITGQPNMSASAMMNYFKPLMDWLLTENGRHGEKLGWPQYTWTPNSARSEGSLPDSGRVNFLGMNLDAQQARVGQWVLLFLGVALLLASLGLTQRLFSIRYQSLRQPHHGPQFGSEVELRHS
Procedure: The determination was measured by HPLC, with slight changes according to the procedure described by [Gonzalez-Gonzalez et al. (2011)]. The sample (20 μL) was dissolved in 120 μL Hip-His-Leu (5 mM) with sodium borate buffer (50 mM, pH 8.1). After incubation at 37°C for 3 min, the ACE solution (0.1 U/mL, 10 μL) was added to the sample and incubated for 60 min at the above temperature. Subsequently, 0.15 mL HCl (1 M) was used to terminate the reaction. The content of hippuric acid (HA) produced by reaction was determined by reverse-phase high-performance liquid chromatography (RP-HPLC, Waters Corporation, United States). A symmetry C18 Column (3.9 × 150 mm, 5 μm, Waters, United States) was used with the Waters HPLC model Alliance 2690 system, which included an ultraviolet detector (Waters, United States). […] Flow rate was 0.8 mL/min. The sample (6 μL) was filtered (0.45 μm filter) and measured at 228 nm. A standard curve was generated using concentrations of standard HA and peak areas. The ACE-inhibitory activity was determined as:
ACEinhibitoryactivity(%)=[HA]control-[HA]sample/[HA]control×100%
The concentration of inhibitor that inhibits 50% ACE activity is defined as IC50 value.

[2] = peptides from low-fat milk fermented with several LAB, ref Chen et al. (2007)

Substance	IC50 [1] [µM]	further results
Gly-Thr-Trp	–	IC50 (ACE; [2]): 464 µM
Gly-Val-Trp	–	IC50 (ACE; [2]): 240 µM
KAALSGM [Lys-Ala-Ala-Leu-Ser-Gly-Met]	110 ± 3.87	–
KKAAMAM [Lys-Lys-Ala-Ala-Met-Ala-Met]	189 ± 4.61	–
KPAGDF [Lys-Pro-Ala-Gly-Asp-Phe]	77.5 ± 2.74	–
LDHVPGGAR [Leu-Asp-His-Val-Pro-Gly-Gly-Ala-Arg]	201 ± 5.24	–
RLSFDP [literature peptide from β-lactoglobulin hydrolysate (f148-153), sour milk fermented with Lb. helveticus LB10]	–	IC50 (ACE; from sour milk fermented with Lb. helveticus LB10, β-lactoglobulin hydrolysate (f148-153), ref Pan and Guo (2010)): 177 µM
